Laboratory results from patent US20070287699A1, “ANTIVIRAL AGENTS” (ViroBay, Inc., priority 2006, published 2007).
Read-outs that look alike come from different tables or passages of the source.

Test system: HCV replicon RNA replication in human Huh7 hepatoma cells
Assay: HCV replicon assay (activity levels from either or both of HCV replicon assay 1, Huh7/Clone A RT-qPCR, and assay 2, Huh7 ET luc-ubi-neo/ET)
Format: cell-based, Hepatitis C virus (HCV)
Settings: 48 hours, 72 hours, Luc activity or RT-PCR, read-out: inhibit HCV replication at IC50 levels or estimated IC50 levels
From the text: The HCV replicon assay is a cell-culture system that mimics in vivo HCV replication and provides a system to study HCV replication in vitro. It was created by transfecting cloned viral RNA derived from a consensus HCV genomic sequence into human Huh7 hepatoma cells that are semi-permissive for viral RNA production (Lohmann V., Korner F., Koch J.-O., Herian U., Theilmann L. and Bartenschlager R. (1999). Replication of subgenomic Hepatitis C virus RNAs in a hepatoma cell line. Science 285, 110-113 and Blight K. J., Kolykhalov A. A. and Rice C. M. (2000). Efficient initiation of HCV RNA Replication in cell culture. Science 290, […]). These transfected cell lines contain a subgenomic HCV RNA genome that includes (1) the HCV 5′NTR fused to 12 amino acids of the capsid coding region, (2) the neomycin phosphotransferase gene (Neo) as a selectable marker, (3) the internal ribosome entry site (IRES) from encephalomyocarditis virus (EMCV) that directs translation of HCV non-structural proteins (variously NS2 or NS3 to NS5B), and (4) the 3′ NTR. Replicon-containing cells autonomously and persistently replicate HCV RNA that can be measured quantitatively by real-time qPCR. Therefore, the replicon system facilitates quantitative assessment of anti-viral activity by monitoring changes in HCV RNA replication in a cell-based assay.
HCV replicon-containing cells (Huh7/Clone A) were routinely maintained in Clone A growth medium (DMEM medium [Invitrogen], supplemented with 10% Fetal Bovine Serum, 1% Non Essential Amino Acids and 1 g/L G418). Test compounds were dissolved in dimethyl sulfoxide (DMSO) to make 200× stock solutions for all doses prior to treatment.
For the HCV replicon assay, Huh7/Clone A cells were trypsinized from culture flasks, seeded in 1 ml of Clone A growth medium without G418 at 4×10^4 cells per well in 24-well plates and incubated at 37° C. in a humidified CO2 (5%) incubator overnight. Following overnight incubation, compound solutions were added into wells in the same volume (5 μl of 200× compound stock per well) to give a final DMSO concentration of 0.5%. Three wells on each plate supplemented with 5 μl of DMSO served as untreated controls. For IC50 determinations, compounds were tested at 7 serial dilutions in triplicates from the starting stock solutions. The plates were incubated at 37° C. for 48 hours. After incubation, cells were harvested, transferred to 96-well plates, and subjected to total RNA extraction using the RNA Isolation Kit (RNeasy 96, Qiagen) according to the protocol described by the manufacture's RNeasy 96 Handbook (Qiagen).
Total RNA eluted in 130 μl of RNase-free dH2O was quantitated by the RiboGreen Assay according to the supplier's protocol (Molecular Probe). Briefly, 5 μl of RNA samples were aliquoted in duplicate to a 96-well black microplate and a 96-well TaqMan Optical plate. RNA samples in the black microplate were mixed with 95 μl of diluted RiboGreen:reagent (1:250 dilution in TE buffer) and sample fluorescence was measured using a fluorescence microplate reader at standard fluorescein wavelengths (excitation ˜480 nm, emission ˜520 nm). Ribosomal RNA (Molecular Probe) was used as standard.
TaqMan quantitative PCR (RT-qPCR) was used to quantitate the amount of HCV replicon RNA in each sample. The RT-qPCR reactions were performed in 25 μl on an ABI PRISM 7900 HT Sequence Detection System (Applied Biosystems). The reaction mixture contained 5 μl of total RNA (10-100 ng), 1× TaqMan Buffer A (Applied Biosystems), 5.5 mM MgCl2, 1.2 mM dNTP mix, 0.625 U of AmpliTaq Gold (Applied Biosystems), 5 U of MMLV reverse transcriptase (Promega), 5 U of rRNasin (Promega), 300 nM each of the forward and reverse primers, and 100 nM TaqMan MGB probe. Primers and probe were designed to hybridize to a portion of the neomycin resistance gene (neo) in the replicon and the sequences are as follows: forward primer 5′-GGCTACCTGCCCATTCGA-3′; reverse primer 5′-CCGGCTTCCATCCGAGTAC-3′; MGB probe 5′-CCACCAAGCGAAACA-3′. […]

[1] = Hepatitis C virus, Huh-7, either or both HCV replicon assays: Huh7/Clone A

SMILES: COc1cc2c(=O)c(-c3noc(Cc4ccccc4)n3)cn(Cc3ccc(Cl)cc3)c2cc1OC [Compound 1, 3-(5-Benzyl-[1,2,4]oxadiazol-3-yl)-1-(4-chloro-benzyl)-6,7-dimethoxy-1H-quinolin-4-one]
- IC50 [1]: > 10 µM

SMILES: COc1cc2c(=O)c(-c3noc(C4(c5ccccc5)CC4)n3)cn(Cc3ccc(Cl)cc3)c2cc1OC [Compound 2, 1-(4-chloro-benzyl)-6,7-dimethoxy-3-[5-(1-phenyl-cyclopropyl)-[1,2,4]oxadiazol-3-yl]-1H-quinolin-4-one]
- IC50 [1]: > 10 µM

SMILES: COc1cc2c(=O)c(-c3noc(Cc4ccccn4)n3)cn(Cc3ccc(Cl)cc3)c2cc1OC [Compound 3, 1-(4-chloro-benzyl)-6,7-dimethoxy-3-(5-pyridin-2-ylmethyl-[1,2,4]oxadiazol-3-yl)-1H-quinolin-4-one]
- IC50 [1]: > 10 µM

SMILES: COc1cc2c(=O)c(-c3noc(Cc4ccc(C)cc4)n3)cn(Cc3ccc(Cl)cc3)c2cc1OC [Compound 4, 1-(4-chloro-benzyl)-6,7-dimethoxy-3-[5-(4-methyl-benzyl)-[1,2,4]oxadiazol-3-yl]-1H-quinolin-4-one]
- IC50 [1]: > 10 µM

SMILES: COc1cc2c(=O)c(-c3noc(CC4CCCCC4)n3)cn(Cc3ccc(Cl)cc3)c2cc1OC [Compound 5, 1-(4-chloro-benzyl)-3-(5-cyclohexylmethyl-[1,2,4]oxadiazol-3-yl)-6,7-dimethoxy-1H-quinolin-4-one]
- IC50 [1]: > 10 µM

SMILES: COc1cc2c(=O)c(-c3noc(Cc4ccsc4)n3)cn(Cc3ccc(Cl)cc3)c2cc1OC [Compound 6, 1-(4-chloro-benzyl)-6,7-dimethoxy-3-(5-thiophen-3-ylmethyl-[1,2,4]oxadiazol-3-yl)-1H-quinolin-4-one]
- IC50 [1]: < 10 µM

SMILES: COc1cc2c(=O)c(-c3noc(CC4CCCC4)n3)cn(Cc3ccc(Cl)cc3)c2cc1OC [Compound 7, 1-(4-chloro-benzyl)-3-(5-cyclopentylmethyl-[1,2,4]oxadiazol-3-yl)-6,7-dimethoxy-1H-quinolin-4-one]
- IC50 [1]: > 10 µM

SMILES: CN1CCN(c2cc3c(cc2F)c(=O)c(-c2noc(Cc4ccccc4)n2)cn3Cc2ccc(Cl)cc2)CC1 [Compound 8, 3-(5-benzyl-[1,2,4]oxadiazol-3-yl)-1-(4-chloro-benzyl)-6-fluoro-7-(4-methyl-piperazin-1-yl)-1H-quinolin-4-one]
- IC50 [1]: < 2 µM

SMILES: CN1CCN(c2cc3c(cc2F)c(=O)c(-c2noc(Cc4ccccc4)n2)cn3CC2CCCCC2)CC1 [Compound 9, 3-(5-benzyl-[1,2,4]oxadiazol-3-yl)-1-cyclohexylmethyl-6-fluoro-7-(4-methyl-piperazin-1-yl)-1H-quinolin-4-one]
- IC50 [1]: < 2 µM

SMILES: COc1ccc2c(c1)c(=O)c(-c1noc(Cc3ccccc3)n1)cn2CC1CCCCC1 [Compound 10, 3-(5-benzyl-[1,2,4]oxadiazol-3-yl)-1-cyclohexylmethyl-6-methoxy-1H-quinolin-4-one]
- IC50 [1]: > 10 µM

SMILES: COc1ccc2c(c1)c(=O)c(-c1noc(Cc3ccccc3)n1)cn2Cc1ccc(Cl)cc1 [Compound 11, 3-(5-benzyl-[1,2,4]oxadiazol-3-yl)-1-(4-chloro-benzyl)-6-methoxy-1H-quinolin-4-one]
- IC50 [1]: > 10 µM

SMILES: O=c1c(-c2noc(Cc3ccccc3)n2)cn(Cc2ccc(Cl)cc2)c2ccc(O)cc12 [Compound 12, 3-(5-benzyl-[1,2,4]oxadiazol-3-yl)-1-(4-chloro-benzyl)-6-hydroxy-1H-quinolin-4-one]
- IC50 [1]: < 10 µM

SMILES: CC(C)Cc1nc(-c2cn(CC3CCCCC3)c3cc(N4CCN(C)CC4)c(F)cc3c2=O)no1 [Compound 13, 1-cyclohexylmethyl-6-fluoro-3-(5-isobutyl-[1,2,4]oxadiazol-3-yl)-7-(4-methyl-piperazin-1-yl)-1H-quinolin-4-one]
- IC50 [1]: > 10 µM

SMILES: CN1CCN(c2cc3c(cc2F)c(=O)c(-c2noc(CC4CC4)n2)cn3CC2CCCCC2)CC1 [Compound 14, 1-cyclohexylmethyl-3-(5-cyclopropylmethyl-[1,2,4]oxadiazol-3-yl)-6-fluoro-7-(4-methyl-piperazin-1-yl)-1H-quinolin-4-one]
- IC50 [1]: < 10 µM

SMILES: CN1CCN(c2cc3c(cc2F)c(=O)c(-c2noc(CC4CCCC4)n2)cn3CC2CCCCC2)CC1 [Compound 15, 1-cyclohexylmethyl-3-(5-cyclopentylmethyl-[1,2,4]oxadiazol-3-yl)-6-fluoro-7-(4-methyl-piperazin-1-yl)-1H-quinolin-4-one]
- IC50 [1]: < 10 µM

SMILES: CN1CCN(c2cc3c(cc2F)c(=O)c(-c2noc(Cc4ccccc4)n2)cn3Cc2ccc(C(F)(F)F)cc2F)CC1 [Compound 16, 3-(5-benzyl-[1,2,4]oxadiazol-3-yl)-6-fluoro-1-(2-fluoro-4-trifluoromethyl-benzyl)-7-(4-methyl-piperazin-1-yl)-1H-quinolin-4-one]
- IC50 (either or both HCV replicon assays: Huh7/Clone A): < 0.5 µM

SMILES: CN1CCN(c2cc3c(cc2F)c(=O)c(-c2noc(CC4CCCC4)n2)cn3Cc2ccc(C(F)(F)F)cc2F)CC1 [Compound 17, 3-(5-cyclopentylmethyl-[1,2,4]oxadiazol-3-yl)-6-fluoro-1-(2-fluoro-4-trifluoromethyl-benzyl)-7-(4-methyl-piperazin-1-yl)-1H-quinolin-4-one]
- IC50 [1]: < 2 µM

SMILES: Cc1cccc(Cc2nc(-c3cn(CC4CCCCC4)c4cc(N5CCN(C)CC5)c(F)cc4c3=O)no2)c1 [Compound 19, 1-cyclohexylmethyl-6-fluoro-3-[5-(3-methyl-benzyl)-[1,2,4]oxadiazol-3-yl]-7-(4-methyl-piperazin-1-yl)-1H-quinolin-4-one]
- IC50 [1]: < 10 µM

SMILES: Cc1ccccc1Cc1nc(-c2cn(CC3CCCCC3)c3cc(N4CCN(C)CC4)c(F)cc3c2=O)no1 [Compound 20, 1-cyclohexylmethyl-6-fluoro-3-[5-(2-methyl-benzyl)-[1,2,4]oxadiazol-3-yl]-7-(4-methyl-piperazin-1-yl)-1H-quinolin-4-one]
- IC50 [1]: < 10 µM

SMILES: CN1CCN(c2cc3c(cc2F)c(=O)c(-c2noc(CC(C)(C)C)n2)cn3Cc2ccc(Cl)cc2)CC1 [Compound 21, 1-(4-chloro-benzyl)-3-[5-(2,2-dimethyl-propyl)-[1,2,4]oxadiazol-3-yl]-6-fluoro-7-(4-methyl-piperazin-1-yl)-1H-quinolin-4-one]
- IC50 [1]: > 10 µM

SMILES: CN1CCN(c2cc3c(cc2F)c(=O)c(-c2noc(Cc4ccccc4CC(=O)O)n2)cn3Cc2ccc(Cl)cc2)CC1 [Compound 22, (2-{3-[1-(4-chloro-benzyl)-6-fluoro-7-(4-methyl-piperazin-1-yl)-4-oxo-1,4-dihydro-quinolin-3-yl]-[1,2,4]oxadiazol-5-ylmethyl}-phenyl)-acetic acid]
- IC50 [1]: > 10 µM

SMILES: CN1CCN(c2cc3c(cc2F)c(=O)c(-c2noc(Cc4ccc(F)cc4)n2)cn3Cc2ccc(C(F)(F)F)cc2F)CC1 [Compound 23, 6-fluoro-3-[5-(4-fluoro-benzyl)-[1,2,4]oxadiazol-3-yl]-1-(2-fluoro-4-trifluoromethyl-benzyl)-7-(4-methyl-piperazin-1-yl)-1H-quinolin-4-one]
- IC50 [1]: < 2 µM

SMILES: O=c1c(-c2noc(Cc3ccccc3)n2)cn(CC2CCCCC2)c2ccc(O)cc12 [Compound 24, 3-(5-benzyl-[1,2,4]oxadiazol-3-yl)-1-cyclohexylmethyl-6-hydroxy-1H-quinolin-4-one]
- IC50 [1]: > 10 µM
